SMILES strings stand for the structures. Values after ≈ are worked out from the molar mass of the structure shown.

21 molecules from patent US10781184B2, “Substituted benzazinones as antibacterial compounds” (GlaxoSmithKline Intellectual Property Development Limited, priority 2015, dated 2020) can be followed below.

What all share (assay): Minimum Inhibitory Concentration Assay (broth microdilution, CLSI)
What all share (format): cell-based

For experiment [1], the system named is E. coli 7623. As to conditions: Escherichia coli; strain 7623, broth microdilution; read-out: E. coli 7623 MIC. The protocol:
(§1) Methods for dilution Antimicrobial Susceptibility TestS for Bacteria that Grow Aerobically; Approved Standard-Ninth Edition; M7-A9, Vol. 32 No. 2, Clinical and Laboratory Standards Institute, Wayne, Pa.; January 2012.
(§2) Performance Standards for Antimicrobial Susceptibility Testing; Twenty-Second Informational Supplement; M100-S22 Vol. 32 No. 3; Clinical and Laboratory Standards Institute, Wayne, Pa., January 2012.
(§3) Broth microdilution was performed in accordance with the CLSI recommended procedures for aerobic bacteria [CLSI, 2012].
(§4) Comparator compound stock solutions were prepared as recommended by CLSI [CLSI, 2012]. The stock solutions of novel GSK compounds were prepared at 512 mcg/mL by dissolving the compounds in dimethyl sulfoxide (DMSO) and diluting 1:10 with sterile water. The 512 mcg/mL stock was further serially diluted in the recommended broth media for the organisms being tested. Final DMSO concentration in test wells was less than 1%.
(§5) Microtitre plates were prepared using the Microlab STAR™ (Hamilton Co., Reno, Nev.) to add media (50 μL) and the Microlab AT Plus system (Hamilton Co., Reno, Nev.) to serially dilute the compounds (final concentration range 0.125 to 128 mcg/mL) and to add inoculum. A positive growth control well containing medium and the test isolate was included on each microtitre plate. Ten microliters of the test medium from the positive growth control well was plated to determine the purity of each test isolate. A microtitre mirror reader (Cooke Instruments, Ltd., England) was used to assist in determining the microdilution MIC endpoints. The MIC was determined as the lowest concentration of compound that inhibited visible growth of the organism.

Experiment [2] deals with P. aeruginosa PA01. As to conditions: Pseudomonas aeruginosa; strain PA01, broth microdilution; read-out: P. aeruginosa PA01 MIC. The protocol: as §1, §2, §3, §4, §5
Experiment [3] concerns K. pneumoniae 1161486. As to conditions: Klebsiella pneumoniae; strain 1161486, broth microdilution; read-out: K. pneumoniae 1161486 MIC. Here is the method: as §1, §2, §3, §4, §5

Consider `C[C@@](CCn1cnc2cc(-c3ccc(CCO)cc3)c(F)cc2c1=O)(C(=O)NO)S(C)(=O)=O` [Example 28, (2R)-4-(6-fluoro-7-[4-(2-hydroxyethyl)phenyl]-4-oxo-3,4-dihydroquinazolin-3-yl)-N-hydroxy-2-methanesulfonyl-2-methylbutanamide], for which the values for the minimal inhibitory concentration (MIC) in experiment [1], in experiment [2] and in experiment [3] were less than 0.03 µg/mL, 0.5 µg/mL (≈ 1.05 µM) and 0.125 µg/mL (≈ 0.262 µM), respectively.

As to `COCCc1ccc(-c2ccc3c(=O)n(CC[C@](C)(C(=O)NO)S(C)(=O)=O)cnc3c2)c(F)c1` [Example 48, (2R)-4-{7-[2-fluoro-4-(2-methoxyethyl)phenyl]-4-oxo-3,4-dihydroquinazolin-3-yl}-N-hydroxy-2-methanesulfonyl-2-methylbutanamide], the MIC in experiment [1] was less than 0.03 µg/mL; in experiment [2], 1 µg/mL (≈ 2.03 µM); in experiment [3] it was 0.125 µg/mL (≈ 0.254 µM).

`C[C@@](CCn1cnc2cc(-c3ccc(CNC4CC4)cc3F)ccc2c1=O)(C(=O)NO)S(C)(=O)=O` [Example 41, (2R)-4-(7-{4-[(cyclopropylamino)methyl]-2-fluorophenyl}-4-oxo-3,4-dihydroquinazolin-3-yl)-N-hydroxy-2-methanesulfonyl-2-methylbutanamide]: the MIC in experiment [1] was 0.125 µg/mL (≈ 0.249 µM); in experiment [2], 2 µg/mL (≈ 3.98 µM); in experiment [3], 2 µg/mL (≈ 3.98 µM).

For the molecule `COc1ccc(-c2ccc3c(=O)n(CC[C@](C)(C(=O)NO)S(C)(=O)=O)ccc3c2)cn1.Cl` [Example 60, (2R)—N-hydroxy-2-methanesulfonyl-4-[6-(6-methoxypyridin-3-yl)-1-oxo-1,2-dihydroisoquinolin-2-yl]-2-methylbutanamide], the minimal inhibitory concentration (MIC) in experiment [1] is less than 0.03 µg/mL; in experiment [2] it was 0.5 µg/mL; in experiment [3], 0.5 µg/mL.

Regarding `COC1CN(CCc2ccc(-c3cc4ncn(CC[C@](C)(C(=O)NO)S(C)(=O)=O)c(=O)c4cc3F)c(F)c2F)C1` [Example 24, (2R)-4-(7-{2,3-difluoro-4-[2-(3-methoxyazetidin-1-yl)ethyl]phenyl}-6-fluoro-4-oxo-3,4-dihydroquinazolin-3-yl)-N-hydroxy-2-methanesulfonyl-2-methylbutanamide], the minimum inhibitory concentration (MIC) in experiment [1] was determined as 0.25 µg/mL (≈ 0.429 µM); in experiment [2] it was 2 µg/mL (≈ 3.43 µM); in experiment [3], 1 µg/mL (≈ 1.72 µM).

Consider `C[C@@](CCn1cnc2cc(-c3ccccc3F)ccc2c1=O)(C(=O)NO)S(C)(=O)=O` [Example 8, (R)-4-(7-(2-fluorophenyl)-4-oxoquinazolin-3(4H)-yl)-N-hydroxy-2-methyl-2-(methylsulfonyl)butanamide], for which the minimal inhibitory concentration (MIC) in experiment [1] is not above 0.03 µg/mL; in experiment [2], 0.5 µg/mL (≈ 1.15 µM); in experiment [3], 0.125 µg/mL (≈ 0.288 µM).

On to `COCCN(C)Cc1ccc(-c2ccc3c(=O)n(CC[C@](C)(C(=O)NO)S(C)(=O)=O)cnc3c2)c(F)c1F` [Example 38, (2R)-4-[7-(2,3-difluoro-4-{[(2-methoxyethyl)(methyl)amino]methyl}phenyl)-4-oxo-3,4-dihydroquinazolin-3-yl]-N-hydroxy-2-methanesulfonyl-2-methylbutanamide], for which the MIC amounted to 0.125 µg/mL (≈ 0.226 µM) in experiment [1], 4 µg/mL (≈ 7.24 µM) in experiment [2] and 0.5 µg/mL (≈ 0.905 µM) in experiment [3].

As to `C[C@@](CCn1cnc2cc(-c3ccc(C(F)F)cc3)ccc2c1=O)(C(=O)NO)S(C)(=O)=O` [Example 10, (R)-4-(7-(4-(difluoromethyl)phenyl)-4-oxoquinazolin-3(4H)-yl)-N-hydroxy-2-methyl-2-(methylsulfonyl)butanamide], the minimal inhibitory concentration (MIC) came out at 0.06 µg/mL (≈ 0.129 µM) in experiment [1], 1 µg/mL (≈ 2.15 µM) in experiment [2] and 0.25 µg/mL (≈ 0.537 µM) in experiment [3].

As for `Cc1ccc(-c2ccc3c(=O)n(CC[C@](C)(C(=O)NO)S(C)(=O)=O)cnc3c2)cc1` [Example 2, (R)—N-hydroxy-2-methyl-2-(methylsulfonyl)-4-(4-oxo-7-(p-tolyl)quinazolin-3(4H)-yl)butanamide], the MIC in experiment [1] came to 0.06 µg/mL (≈ 0.14 µM); in experiment [2] it was 0.5 µg/mL (≈ 1.16 µM); in experiment [3], 0.125 µg/mL (≈ 0.291 µM).

For `COCCN(C)Cc1ccc(-c2ccc3c(=O)n(CC[C@](C)(C(=O)NO)S(C)(=O)=O)ccc3c2)c(F)c1` [Example 66, (2R)-4-[6-(2-fluoro-4-{[(2-methoxyethyl)(methyl)amino]methyl}phenyl)-1-oxo-1,2-dihydroisoquinolin-2-yl]-N-hydroxy-2-methanesulfonyl-2-methylbutanamide], the minimal inhibitory concentration (MIC) was found to be 0.063 µg/mL (≈ 0.118 µM) in experiment [1], 1 µg/mL (≈ 1.87 µM) in experiment [2] and 0.125 µg/mL (≈ 0.234 µM) in experiment [3].

Consider `C[C@@](CCn1cnc2cc(-c3ccccc3)c(F)cc2c1=O)(C(=O)NO)S(C)(=O)=O` [Example 31, (2R)-4-(6-fluoro-4-oxo-7-phenyl-3,4-dihydroquinazolin-3-yl)-N-hydroxy-2-methanesulfonyl-2-methylbutanamide], for which the MIC in experiment [1] turned out to be 0.063 µg/mL (≈ 0.145 µM); in experiment [2], 2 µg/mL (≈ 4.61 µM); in experiment [3] it was 0.25 µg/mL (≈ 0.577 µM).

On to `Cc1ccc(-c2ccc3c(=O)n(CC[C@](C)(C(=O)NO)S(C)(=O)=O)ccc3c2)cc1` [Example 54, (2R)—N-hydroxy-2-methanesulfonyl-2-methyl-4-[6-(4-methylphenyl)-1-oxo-1,2-dihydroisoquinolin-2-yl]butanamide], for which the minimum inhibitory concentration (MIC) in experiment [1] was less than 0.03 µg/mL; in experiment [2] it was 1 µg/mL (≈ 2.33 µM); in experiment [3] it was 0.5 µg/mL (≈ 1.17 µM).

Take `C[C@@](CCn1cnc2cc(-c3ccc(CN4CCOCC4)cc3F)c(F)cc2c1=O)(C(=O)NO)S(C)(=O)=O` [Example 26, (2R)-4-(6-fluoro-7-{2-fluoro-4-[(morpholin-4-yl)methyl]phenyl}4-oxo-3,4-dihydroquinazolin-3-yl)-N-hydroxy-2-methanesulfonyl-2-methylbutanamide]: the MIC in experiment [1] worked out at 0.125 µg/mL (≈ 0.227 µM); in experiment [2] it was 4 µg/mL (≈ 7.27 µM); in experiment [3], 0.5 µg/mL (≈ 0.908 µM).

Regarding `CN(CCOc1ccc(-c2ccc3c(=O)n(CC[C@](C)(C(=O)NO)S(C)(=O)=O)ccc3c2)cn1)C1CC1.O=C(O)C(F)(F)F` [Example 82, (2R)-4-[6-(6-{2-[cyclopropyl(methyl)amino]ethoxy}pyridin-3-yl)-1-oxo-1,2-dihydroisoquinolin-2-yl]-N-hydroxy-2-methanesulfonyl-2-methylbutanamide], the MIC in experiment [1] is 0.25 µg/mL; in experiment [2], 4 µg/mL; in experiment [3], 0.25 µg/mL.

`C[C@@](CCn1cnc2cc(-c3cc(F)ccc3F)ccc2c1=O)(C(=O)NO)S(C)(=O)=O` [Example 7, (R)-4-(7-(2,5-difluorophenyl)-4-oxoquinazolin-3(4H)-yl)-N-hydroxy-2-methyl-2-(methylsulfonyl)butanamide]: the minimal inhibitory concentration (MIC) is 0.06 µg/mL (≈ 0.133 µM) in experiment [1], 2 µg/mL (≈ 4.43 µM) in experiment [2] and 0.25 µg/mL (≈ 0.554 µM) in experiment [3].

As for `CN(Cc1ccc(-c2cc3ncn(CC[C@](C)(C(=O)NO)S(C)(=O)=O)c(=O)c3cc2F)cc1)C1CC1` [Example 22, (2R)-4-[7-(4-{[cyclopropyl(methyl)amino]methyl}phenyl)-6-fluoro-4-oxo-3,4-dihydroquinazolin-3-yl]-N-hydroxy-2-methanesulfonyl-2-methylbutanamide], the minimum inhibitory concentration (MIC) is less than 0.03 µg/mL in experiment [1], 8 µg/mL (≈ 15.5 µM) in experiment [2] and 0.25 µg/mL (≈ 0.484 µM) in experiment [3].

`CN(C)c1ccc(-c2ccc3c(=O)n(CC[C@](C)(C(=O)NO)S(C)(=O)=O)ccc3c2)cn1` [Example 62, (2R)-4-{6-[6-(dimethylamino)pyridin-3-yl]-1-oxo-1,2-dihydroisoquinolin-2-yl}-N-hydroxy-2-methanesulfonyl-2-methylbutanamide]: the results for the MIC in experiment [1], in experiment [2] and in experiment [3] were 0.125 µg/mL (≈ 0.273 µM), 8 µg/mL (≈ 17.4 µM) and 0.5 µg/mL (≈ 1.09 µM), respectively.

For the molecule `COc1ccc(-c2cc(F)c3c(=O)n(CC[C@](C)(C(=O)NO)S(C)(=O)=O)cnc3c2)cc1` [Example 16, (2R)-4-[5-fluoro-7-(4-methoxyphenyl)-4-oxo-3,4-dihydroquinazolin-3-yl]-N-hydroxy-2-methanesulfonyl-2-methylbutanamide], the MIC in experiment [1] amounted to 0.25 µg/mL (≈ 0.539 µM); in experiment [2], 8 µg/mL (≈ 17.3 µM); in experiment [3], 1 µg/mL (≈ 2.16 µM).

For `C[C@@](CCn1ccc2cc(-c3ccccc3)ccc2c1=O)(C(=O)NO)S(C)(=O)=O` [Example 56, (2R)—N-hydroxy-2-methanesulfonyl-2-methyl-4-(1-oxo-6-phenyl-1,2-dihydroisoquinolin-2-yl)butanamide], the figures for the MIC in experiment [1], in experiment [2] and in experiment [3] were 0.063 µg/mL (≈ 0.152 µM), 0.5 µg/mL (≈ 1.21 µM) and 0.125 µg/mL (≈ 0.302 µM), respectively.

In the case of `CN(C)CC(=O)OCCc1ccc(-c2ccc3c(=O)n(CC[C@](C)(C(=O)NO)S(C)(=O)=O)ccc3c2)cc1` [Example 94, 2-(4-{2-[(3R)-3-(hydroxycarbamoyl)-3-methanesulfonyl-3-methylpropyl]-1-oxo-1,2-dihydroisoquinolin-6-yl}phenyl)ethyl 2-(dimethylamino)acetate], the MIC is 0.125 µg/mL (≈ 0.23 µM) in experiment [1], 2 µg/mL (≈ 3.68 µM) in experiment [2] and 0.25 µg/mL (≈ 0.46 µM) in experiment [3].

With `CN(CCO)Cc1ccc(-c2ccc3c(=O)n(CC[C@](C)(C(=O)NO)S(C)(=O)=O)ccc3c2)c(F)c1.O=C(O)C(F)(F)F` [Example 74, (2R)-4-[6-(2-fluoro-4-{[(2-hydroxyethyl)(methyl)amino]methyl}phenyl)-1-oxo-1,2-dihydroisoquinolin-2-yl]-N-hydroxy-2-methanesulfonyl-2-methylbutanamide], the minimum inhibitory concentration (MIC) in experiment [1] is 0.25 µg/mL; in experiment [2], 1 µg/mL; in experiment [3] it was 0.5 µg/mL.
